Experimental findings from patent publication US20230031406A1, “COMPOUNDS AND COMPOSITIONS FOR TREATING CONDITIONS ASSOCIATED WITH NLRP ACTIVITY” (Novartis AG, priority 2018, published 2023) are described below.

The term IC50 denotes the concentration needed to halve the response being measured.

One assay relates to PMA-differentiated THP-1 cells. In words: IL-1β production in PMA-differentiated THP-1 cells stimulated with gramicidin (hTHP-1 assay containing 2% fetal bovine serum; Procedures 1 and 2). It counts as cell-based, human. The following applies: Homo sapiens, THP-1, Table B1; 2% fetal bovine serum; class symbols; read-out: Average IC50 of compounds in hTHP-1 assay: hTHP-1 IC50. The method, boiled down: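 THP-1 cells were differentiated with PMA (20 ng/ml, 16-18 h), detached, and plated at 50,000 cells/well in RPMI 1640 with 2% FBS. They were pre-treated with compound (0.0017–100 μM, 0.37% DMSO) for 1 h, then stimulated with gramicidin (5 μM) for 2 h. Supernatant IL-1β was measured by HTRF.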
In the case of `NS(=O)(=NC(=O)Nc1c2c(nc3c1CCC31CC1)CCC2)c1ccn(C(F)F)n1` (centres unmarked) [Compound 180, 1-(difluoromethyl)-N′-((1′,5′,6′,7′-tetrahydro-2′H-spiro[cyclopropane-1,3′-dicyclopenta[b,e]pyridin]-8′-yl)carbamoyl)-1H-pyrazole-3-sulfonimidamide], the IC50 lay in the range of 1000 to 5000 nM.

On to `CC(C)c1ncc(F)c(C(C)C)c1NC(=O)N=S(N)(=O)c1sc(C(C)(C)O)cc1F` (centres unmarked) [Compound 106, 3-Fluoro-N′-((5-fluoro-2,4-diisopropylpyridin-3-yl)carbamoyl)-5-(2-hydroxypropan-2-yl)thiophene-2-sulfonimidamide], for which the IC50 is 40 to 200 nM.

`CC(C)c1csc(S(N)(=O)=NC(=O)Nc2c3c(nc4c2CCC4)CCC3)c1` (single isomer, unassigned) [Compound 173a, (R) or (S)-N′-((1,2,3,5,6,7-hexahydrodicyclo-penta[b,e]pyridin-8-yl)carbamoyl)-4-isopropylthiophene-2-sulfonimidamide]: the IC50 is 200 to 1000 nM.

Regarding `CN(C)Cc1ccc(S(N)(=O)=NC(=O)Nc2c3c(nc4c2CCC4(C)C)CCC3)cc1` (single isomer, unassigned) [Compound 125b, (R) or (S)-N′-((3,3-dimethyl-1,2,3,5,6,7-hexahydro-dicyclopenta[b,e]pyridin-8-yl)carbamoyl)-4-((dimethylamino)meth-yl)benzene-sulfonimidamide], the IC50 fell in the range of 1000 to 5000 nM.

Staying with this assay, now noted: Homo sapiens, THP-1, Table B2; 2% fetal bovine serum; class symbols; read-out: hTHP-1 IC50.
`Cc1cn(C(C)C)nc1S(N)(=O)=NC(=O)Nc1c2c(nc3c1CCC3)CCC2` (centres unmarked) [Compound 687, N′-((1,2,3,5,6,7-hexahydrodicyclopenta[b,e]pyridin-8-yl)carbamoyl)-1-isopropyl-4-methyl-1H-pyrazole-3-sulfonimidamide]: the IC50 was in the range of 5000 to 30000 nM.

With `Cc1c(C2CC2)nc(C2CC2)c(C)c1NC(=O)N=S(N)(=O)c1cc(C(C)(C)O)cs1` (centres unmarked) [Compound 612, N′-((2,6-dicyclopropyl-3,5-dimethylpyridin-4-yl)carbamoyl)-4-(2-hydroxypropan-2-yl)thiophene-2-sulfonimidamide], the half-inhibitory concentration (IC50) lay in the range of 1000 to 5000 nM.

With `C[C@@H]1CCc2c1nc1c(c2NC(=O)N=S(N)(=O)c2ccn(-c3ccccc3)n2)CCC1` (single isomer, unassigned) [Compound 700b, (R) or (S)-N′-(((R)-3-methyl-1,2,3,5,6,7-hexahydrodicyclopenta [b,e]pyridin-8-yl)carbamoyl)-1-phenyl-1H-pyrazole-3-sulfonimidamide], the concentration for half-maximal inhibition (IC50) was 200 to 1000 nM.

Turning to `CC(C)(O)c1csc(S(N)(=O)=NC(=O)Nc2cc(CC(F)(F)F)nc3c2CCC3)c1` (centres unmarked) [Compound 607, 4-(2-Hydroxypropan-2-yl)-N′-((2-(2,2,2-trifluoroethyl)-6,7-dihydro-5H-cyclopenta[b]pyridin-4-yl)carbamoyl)thiophene-2-sulfonimidamide], the 50% inhibitory concentration (IC50) was 1000 to 5000 nM.

As for `CC(C)(O)c1cc(F)c([S@](N)(=O)=NC(=O)Nc2c3c(nc(C4CC4)c2C2CC2)CCC3)s1` [Compound 727b], the 50% inhibitory concentration (IC50) lay within 40 to 200 nM.

The same assay, now with this note: Homo sapiens, THP-1, Table B3; hTHP-1 assay, 2% fetal bovine serum; class symbols; read-out: IC50.
Consider `Cc1c(C(F)(F)F)nc2c(c1NC(=O)N=[S@@](N)(=O)c1cnc(C(C)(C)O)s1)CC(C)C2` (stereo partly drawn) [Example 576, (R)-N′-((3,6-dimethyl-2-(trifluoromethyl)-6,7-dihydro-5H-cyclopenta[b]pyridin-4-yl)carbamoyl)-2-(2-hydroxypropan-2-yl)thiazole-5-sulfonimidamide], for which the IC50 is 200 to 1000 nM.

As for `Cc1c(CC(F)(F)F)nc2c(c1NC(=O)N=S(N)(=O)c1nn(C(F)F)cc1F)CCC2` (single isomer, unassigned) [Example 723, (R) or (S)-1-(difluoromethyl)-4-fluoro-N′-((3-methyl-2-(2,2,2-trifluoroethyl)-6,7-dihydro-5H-cyclopenta[b]pyridin-4-yl)carbamoyl)-1H-pyrazole-3-sulfonimidamide], the IC50 lay within 1000 to 5000 nM.

Still in this assay, the particulars now being: Table B1; 2% fetal bovine serum; class symbols; read-out: Average IC50 of compounds in hTHP-1 assay: hTHP-1 IC50.
`CC1CCc2c1nc1c(c2NC(=O)N=S(N)(=O)c2sc(C(C)(C)O)cc2F)CCC1` (single isomer, unassigned) [Compound 103ba, (R,R) or (R,S)-3-fluoro-5-(2-hydroxypropan-2-yl)-N′-((3-methyl-1,2,3,5,6,7-hexahydrodicyclo-penta[b,e]pyridin-8-yl)carbamoyl)thiophene-2-sulfonimidamide]: the IC50 fell in the range of 8 to 40 nM.

On to `Cc1sc(S(N)(=O)=NC(=O)Nc2c3c(nc4c2CCC4)CCC3)cc1C(C)(C)O` (single isomer, unassigned) [Compound 107a, (R) or (S)-N′-((1,2,3,5,6,7-hexahydrodicyclo-penta[b,e]pyridin-8-yl)carbamoyl)-4-(2-hydroxypropan-2-yl)-5-methylthiophene-2-sulfonimidamide], for which the IC50 lay in the range of 200 to 1000 nM.

As for `CC(C)(O)c1csc(S(N)(=O)=NC(=O)Nc2c3c(nc4c2CCC4(C)C)CCC3)c1` (single isomer, unassigned) [Compound 127b, (R) or (S)-N′-((3,3-dimethyl-1,2,3,5,6,7-hexahydro-dicyclopenta[b,e]pyridin-8-yl)carbamoyl)-4-(2-hydroxypropan-2-yl)thio-phene-2-sulfonimidamide], the IC50 was 40 to 200 nM.

Staying with this assay, now noted: Table B2; 2% fetal bovine serum; class symbols; read-out: hTHP-1 IC50.
Turning to `CC(C)c1cnc(F)c(C(C)C)c1NC(=O)N=S(N)(=O)c1cnc(C(C)(C)O)s1` (single isomer, unassigned) [Compound 115a, (S) or (R)-N′-((2-fluoro-3,5-diisopropylpyridin-4-yl)carbamoyl)-2-(2-hydroxypropan-2-yl)thiazole-5-sulfonimidamide], the IC50 was in the range of 5000 to 30000 nM.

For the compound `CCc1c(C2CC2)nc2c(c1NC(=O)N=S(N)(=O)c1cnc(C(C)(C)O)s1)CCC2` (single isomer, unassigned) [Compound 675a, (R) or (S)-N′-((2-cyclopropyl-3-ethyl-6,7-dihydro-5H-cyclopenta[b]pyridin-4-yl)carbamoyl)-2-(2-hydroxypropan-2-yl)thiazole-5-sulfonimidamide], the IC50 is 1000 to 5000 nM.

Take `CCc1c(C(F)(F)F)nc2c(c1NC(=O)N=S(N)(=O)c1sc(C(C)(C)O)cc1F)CCC2` (single isomer, unassigned) [Compound 611b, (R) or (S)-N′-((3-ethyl-2-(trifluoromethyl)-6,7-dihydro-5H-cyclopenta[b]pyridin-4-yl)carbamoyl)-3-fluoro-5-(2-hydroxypropan-2-yl)thiophene-2-sulfonimidamide]: the IC50 is 200 to 1000 nM.

On to `C[C@@H]1CCc2c1nc1c(c2NC(=O)N=S(N)(=O)c2ccn(C(C)(F)F)n2)CCC1` (single isomer, unassigned) [Compound 723a, (S) or (R)-1-(1,1-Difluoroethyl)-N′-(((R)-3-methyl-1,2,3,5,6,7-hexahydrodicyclopenta[b, e]pyridin-8-yl)carbamoyl)-1H-pyrazole-3-sulfonimidamide], for which the IC50 was in the range of 5000 to 30000 nM.

The assay is the same for the next values; noted with them: Table B3; hTHP-1 assay, 2% fetal bovine serum; class symbols; read-out: IC50.
For the compound `NS(=O)(=NC(=O)Nc1c2c(nc(C3CC3)c1C1CC1)CCC2)c1ccn(C(F)F)n1` (single isomer, unassigned) [Example 696, (S) or (R)-N′-((2,3-dicyclopropyl-6,7-dihydro-5H-cyclopenta [b]pyridin-4-yl)carbamoyl)-1-(difluoromethyl)-1H-pyrazole-3-sulfonimidamide], the IC50 was 5000 to 30000 nM.

As to `NS(=O)(=NC(=O)Nc1c2c(nc(C3CC3)c1C1CC1)CCC2)c1ccn(C(F)F)n1` (single isomer, unassigned) [Example 695, (R) or (S)-N′-((2,3-dicyclopropyl-6,7-dihydro-5H-cyclopenta [b]pyridin-4-yl)carbamoyl)-1-(difluoromethyl)-1H-pyrazole-3-sulfonimidamide], the IC50 fell in the range of 1000 to 5000 nM.
